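Results reflect a 48-hour exposure of cells in 96-well plates to compound at five concentrations. The concentration for full growth arrest is given as TGI.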
Tested on: A549 NSCLC
Assay: NCI tumour cell line growth inhibition, 48 h

Compound	TGI
Nc1ccc(Sc2nnc(N)s2)cc1	> 100 µM
O=c1c(Nc2ccccc2)cn(CCOc2ccccc2)c(=O)n1CCOc1ccccc1	> 100 µM
CCn1cc(C(=O)O)c(=O)c2ccc(C)nc21	> 100 µM
COc1cc2c3c(c1Oc1nnnn1-c1ccccc1)-c1c(ccc4c1OCO4)C[C@H]3N(C)CC2	> 100 µM
NC(C/C=C/P(=O)(O)O)C(=O)O (configuration not stated)	> 100 µM

Tested on: BT-549 breast
Assay: NCI tumour cell line growth inhibition, 48 h

Compound	TGI
O=c1c(Nc2ccccc2)cn(CCOc2ccccc2)c(=O)n1CCOc1ccccc1	72.3 µM

Tested on: OVCAR-8 ovarian
Assay: NCI tumour cell line growth inhibition, 48 h

Compound	TGI
Nc1ccc(Sc2nnc(N)s2)cc1	> 100 µM
CCn1cc(C(=O)O)c(=O)c2ccc(C)nc21	> 100 µM
COc1cc2c3c(c1Oc1nnnn1-c1ccccc1)-c1c(ccc4c1OCO4)C[C@H]3N(C)CC2	> 100 µM
NC(C/C=C/P(=O)(O)O)C(=O)O (configuration not stated)	> 100 µM

Tested on: SNB-75 CNS
Assay: NCI tumour cell line growth inhibition, 48 h

Compound	TGI
Nc1ccc(Sc2nnc(N)s2)cc1	> 100 µM
CCn1cc(C(=O)O)c(=O)c2ccc(C)nc21	> 100 µM
COc1cc2c3c(c1Oc1nnnn1-c1ccccc1)-c1c(ccc4c1OCO4)C[C@H]3N(C)CC2	91.3 µM
NC(C/C=C/P(=O)(O)O)C(=O)O (configuration not stated)	> 100 µM

Tested on: ACHN renal
Assay: NCI tumour cell line growth inhibition, 48 h

Compound	TGI
Nc1ccc(Sc2nnc(N)s2)cc1	> 100 µM
O=c1c(Nc2ccccc2)cn(CCOc2ccccc2)c(=O)n1CCOc1ccccc1	> 100 µM
CCn1cc(C(=O)O)c(=O)c2ccc(C)nc21	> 100 µM
COc1cc2c3c(c1Oc1nnnn1-c1ccccc1)-c1c(ccc4c1OCO4)C[C@H]3N(C)CC2	88.7 µM
NC(C/C=C/P(=O)(O)O)C(=O)O (configuration not stated)	> 100 µM

Tested on: OVCAR-5 ovarian
Assay: NCI tumour cell line growth inhibition, 48 h

Compound	TGI
Nc1ccc(Sc2nnc(N)s2)cc1	> 100 µM
O=c1c(Nc2ccccc2)cn(CCOc2ccccc2)c(=O)n1CCOc1ccccc1	> 100 µM
CCn1cc(C(=O)O)c(=O)c2ccc(C)nc21	> 100 µM
COc1cc2c3c(c1Oc1nnnn1-c1ccccc1)-c1c(ccc4c1OCO4)C[C@H]3N(C)CC2	> 100 µM
NC(C/C=C/P(=O)(O)O)C(=O)O (configuration not stated)	> 100 µM

Tested on: HCC-2998 colon
Assay: NCI tumour cell line growth inhibition, 48 h

Compound	TGI
Nc1ccc(Sc2nnc(N)s2)cc1	> 100 µM
O=c1c(Nc2ccccc2)cn(CCOc2ccccc2)c(=O)n1CCOc1ccccc1	> 100 µM
CCn1cc(C(=O)O)c(=O)c2ccc(C)nc21	> 100 µM
COc1cc2c3c(c1Oc1nnnn1-c1ccccc1)-c1c(ccc4c1OCO4)C[C@H]3N(C)CC2	36.3 µM
NC(C/C=C/P(=O)(O)O)C(=O)O (configuration not stated)	> 100 µM

Tested on: MDA-MB-231 breast
Assay: NCI tumour cell line growth inhibition, 48 h

Compound	TGI
Nc1ccc(Sc2nnc(N)s2)cc1	> 100 µM
CCn1cc(C(=O)O)c(=O)c2ccc(C)nc21	> 100 µM
COc1cc2c3c(c1Oc1nnnn1-c1ccccc1)-c1c(ccc4c1OCO4)C[C@H]3N(C)CC2	> 100 µM
NC(C/C=C/P(=O)(O)O)C(=O)O (configuration not stated)	> 100 µM

Tested on: HT29 colon
Assay: NCI tumour cell line growth inhibition, 48 h

Compound	TGI
O=c1c(Nc2ccccc2)cn(CCOc2ccccc2)c(=O)n1CCOc1ccccc1	> 100 µM
CCn1cc(C(=O)O)c(=O)c2ccc(C)nc21	> 100 µM
COc1cc2c3c(c1Oc1nnnn1-c1ccccc1)-c1c(ccc4c1OCO4)C[C@H]3N(C)CC2	41.9 µM
NC(C/C=C/P(=O)(O)O)C(=O)O (configuration not stated)	> 100 µM

Tested on: TK-10 renal
Assay: NCI tumour cell line growth inhibition, 48 h

Compound	TGI
Nc1ccc(Sc2nnc(N)s2)cc1	> 100 µM
CCn1cc(C(=O)O)c(=O)c2ccc(C)nc21	> 100 µM
COc1cc2c3c(c1Oc1nnnn1-c1ccccc1)-c1c(ccc4c1OCO4)C[C@H]3N(C)CC2	> 100 µM
NC(C/C=C/P(=O)(O)O)C(=O)O (configuration not stated)	> 100 µM

Tested on: NCI/ADR-RES ovarian
Assay: NCI tumour cell line growth inhibition, 48 h

Compound	TGI
Nc1ccc(Sc2nnc(N)s2)cc1	> 100 µM
O=c1c(Nc2ccccc2)cn(CCOc2ccccc2)c(=O)n1CCOc1ccccc1	> 100 µM
CCn1cc(C(=O)O)c(=O)c2ccc(C)nc21	> 100 µM
COc1cc2c3c(c1Oc1nnnn1-c1ccccc1)-c1c(ccc4c1OCO4)C[C@H]3N(C)CC2	> 100 µM
NC(C/C=C/P(=O)(O)O)C(=O)O (configuration not stated)	> 100 µM

Tested on: NCI-H522 lung
Assay: NCI tumour cell line growth inhibition, 48 h

Compound	TGI
Nc1ccc(Sc2nnc(N)s2)cc1	> 100 µM
O=c1c(Nc2ccccc2)cn(CCOc2ccccc2)c(=O)n1CCOc1ccccc1	99.5 µM
CCn1cc(C(=O)O)c(=O)c2ccc(C)nc21	> 100 µM
COc1cc2c3c(c1Oc1nnnn1-c1ccccc1)-c1c(ccc4c1OCO4)C[C@H]3N(C)CC2	94.6 µM
NC(C/C=C/P(=O)(O)O)C(=O)O (configuration not stated)	> 100 µM

Tested on: SK-MEL-5 melanoma
Assay: NCI tumour cell line growth inhibition, 48 h

Compound	TGI
Nc1ccc(Sc2nnc(N)s2)cc1	> 100 µM
O=c1c(Nc2ccccc2)cn(CCOc2ccccc2)c(=O)n1CCOc1ccccc1	> 100 µM
CCn1cc(C(=O)O)c(=O)c2ccc(C)nc21	> 100 µM
COc1cc2c3c(c1Oc1nnnn1-c1ccccc1)-c1c(ccc4c1OCO4)C[C@H]3N(C)CC2	> 100 µM
NC(C/C=C/P(=O)(O)O)C(=O)O (configuration not stated)	> 100 µM

Tested on: MALME-3M melanoma
Assay: NCI tumour cell line growth inhibition, 48 h

Compound	TGI
O=c1c(Nc2ccccc2)cn(CCOc2ccccc2)c(=O)n1CCOc1ccccc1	> 100 µM
CCn1cc(C(=O)O)c(=O)c2ccc(C)nc21	> 100 µM
COc1cc2c3c(c1Oc1nnnn1-c1ccccc1)-c1c(ccc4c1OCO4)C[C@H]3N(C)CC2	34.8 µM

Tested on: MCF7 breast
Assay: NCI tumour cell line growth inhibition, 48 h

Compound	TGI
Nc1ccc(Sc2nnc(N)s2)cc1	> 100 µM
O=c1c(Nc2ccccc2)cn(CCOc2ccccc2)c(=O)n1CCOc1ccccc1	> 100 µM
CCn1cc(C(=O)O)c(=O)c2ccc(C)nc21	> 100 µM
NC(C/C=C/P(=O)(O)O)C(=O)O (configuration not stated)	> 100 µM

Tested on: SNB-19 CNS
Assay: NCI tumour cell line growth inhibition, 48 h

Compound	TGI
Nc1ccc(Sc2nnc(N)s2)cc1	> 100 µM
O=c1c(Nc2ccccc2)cn(CCOc2ccccc2)c(=O)n1CCOc1ccccc1	> 100 µM
CCn1cc(C(=O)O)c(=O)c2ccc(C)nc21	> 100 µM
COc1cc2c3c(c1Oc1nnnn1-c1ccccc1)-c1c(ccc4c1OCO4)C[C@H]3N(C)CC2	> 100 µM
NC(C/C=C/P(=O)(O)O)C(=O)O (configuration not stated)	> 100 µM

Tested on: MOLT-4 leukemia
Assay: NCI tumour cell line growth inhibition, 48 h

Compound	TGI
Nc1ccc(Sc2nnc(N)s2)cc1	> 100 µM
O=c1c(Nc2ccccc2)cn(CCOc2ccccc2)c(=O)n1CCOc1ccccc1	> 100 µM
CCn1cc(C(=O)O)c(=O)c2ccc(C)nc21	> 100 µM
COc1cc2c3c(c1Oc1nnnn1-c1ccccc1)-c1c(ccc4c1OCO4)C[C@H]3N(C)CC2	> 100 µM
NC(C/C=C/P(=O)(O)O)C(=O)O (configuration not stated)	> 100 µM

Tested on: SF-539 CNS
Assay: NCI tumour cell line growth inhibition, 48 h

Compound	TGI
Nc1ccc(Sc2nnc(N)s2)cc1	> 100 µM
CCn1cc(C(=O)O)c(=O)c2ccc(C)nc21	> 100 µM
COc1cc2c3c(c1Oc1nnnn1-c1ccccc1)-c1c(ccc4c1OCO4)C[C@H]3N(C)CC2	> 100 µM
NC(C/C=C/P(=O)(O)O)C(=O)O (configuration not stated)	> 100 µM

Tested on: COLO 205 colon
Assay: NCI tumour cell line growth inhibition, 48 h

Compound	TGI
Nc1ccc(Sc2nnc(N)s2)cc1	> 100 µM
O=c1c(Nc2ccccc2)cn(CCOc2ccccc2)c(=O)n1CCOc1ccccc1	> 100 µM
CCn1cc(C(=O)O)c(=O)c2ccc(C)nc21	> 100 µM
COc1cc2c3c(c1Oc1nnnn1-c1ccccc1)-c1c(ccc4c1OCO4)C[C@H]3N(C)CC2	> 100 µM
NC(C/C=C/P(=O)(O)O)C(=O)O (configuration not stated)	> 100 µM

Tested on: A498 renal
Assay: NCI tumour cell line growth inhibition, 48 h

Compound	TGI
O=c1c(Nc2ccccc2)cn(CCOc2ccccc2)c(=O)n1CCOc1ccccc1	> 100 µM

Tested on: PC-3 prostate
Assay: NCI tumour cell line growth inhibition, 48 h

Compound	TGI
Nc1ccc(Sc2nnc(N)s2)cc1	> 100 µM
O=c1c(Nc2ccccc2)cn(CCOc2ccccc2)c(=O)n1CCOc1ccccc1	> 100 µM
CCn1cc(C(=O)O)c(=O)c2ccc(C)nc21	> 100 µM
COc1cc2c3c(c1Oc1nnnn1-c1ccccc1)-c1c(ccc4c1OCO4)C[C@H]3N(C)CC2	> 100 µM
NC(C/C=C/P(=O)(O)O)C(=O)O (configuration not stated)	> 100 µM

Tested on: NCI-H226 lung
Assay: NCI tumour cell line growth inhibition, 48 h

Compound	TGI
CCn1cc(C(=O)O)c(=O)c2ccc(C)nc21	> 100 µM
COc1cc2c3c(c1Oc1nnnn1-c1ccccc1)-c1c(ccc4c1OCO4)C[C@H]3N(C)CC2	> 100 µM

Tested on: HCT-116 colon
Assay: NCI tumour cell line growth inhibition, 48 h

Compound	TGI
Nc1ccc(Sc2nnc(N)s2)cc1	> 100 µM
O=c1c(Nc2ccccc2)cn(CCOc2ccccc2)c(=O)n1CCOc1ccccc1	> 100 µM
CCn1cc(C(=O)O)c(=O)c2ccc(C)nc21	> 100 µM
COc1cc2c3c(c1Oc1nnnn1-c1ccccc1)-c1c(ccc4c1OCO4)C[C@H]3N(C)CC2	> 100 µM
NC(C/C=C/P(=O)(O)O)C(=O)O (configuration not stated)	> 100 µM

Tested on: SF-295 CNS
Assay: NCI tumour cell line growth inhibition, 48 h

Compound	TGI
Nc1ccc(Sc2nnc(N)s2)cc1	> 100 µM
O=c1c(Nc2ccccc2)cn(CCOc2ccccc2)c(=O)n1CCOc1ccccc1	> 100 µM
CCn1cc(C(=O)O)c(=O)c2ccc(C)nc21	> 100 µM
COc1cc2c3c(c1Oc1nnnn1-c1ccccc1)-c1c(ccc4c1OCO4)C[C@H]3N(C)CC2	> 100 µM
NC(C/C=C/P(=O)(O)O)C(=O)O (configuration not stated)	> 100 µM

Tested on: LOX IMVI melanoma
Assay: NCI tumour cell line growth inhibition, 48 h

Compound	TGI
O=c1c(Nc2ccccc2)cn(CCOc2ccccc2)c(=O)n1CCOc1ccccc1	> 100 µM
CCn1cc(C(=O)O)c(=O)c2ccc(C)nc21	> 100 µM
COc1cc2c3c(c1Oc1nnnn1-c1ccccc1)-c1c(ccc4c1OCO4)C[C@H]3N(C)CC2	77.5 µM
NC(C/C=C/P(=O)(O)O)C(=O)O (configuration not stated)	> 100 µM

Tested on: SW-620 colon
Assay: NCI tumour cell line growth inhibition, 48 h

Compound	TGI
Nc1ccc(Sc2nnc(N)s2)cc1	> 100 µM
O=c1c(Nc2ccccc2)cn(CCOc2ccccc2)c(=O)n1CCOc1ccccc1	> 100 µM
CCn1cc(C(=O)O)c(=O)c2ccc(C)nc21	> 100 µM
COc1cc2c3c(c1Oc1nnnn1-c1ccccc1)-c1c(ccc4c1OCO4)C[C@H]3N(C)CC2	> 100 µM
NC(C/C=C/P(=O)(O)O)C(=O)O (configuration not stated)	> 100 µM

Tested on: CCRF-CEM leukemia
Assay: NCI tumour cell line growth inhibition, 48 h

Compound	TGI
Nc1ccc(Sc2nnc(N)s2)cc1	> 100 µM
O=c1c(Nc2ccccc2)cn(CCOc2ccccc2)c(=O)n1CCOc1ccccc1	> 100 µM
CCn1cc(C(=O)O)c(=O)c2ccc(C)nc21	> 100 µM
COc1cc2c3c(c1Oc1nnnn1-c1ccccc1)-c1c(ccc4c1OCO4)C[C@H]3N(C)CC2	> 100 µM
NC(C/C=C/P(=O)(O)O)C(=O)O (configuration not stated)	> 100 µM

Tested on: K-562 leukemia
Assay: NCI tumour cell line growth inhibition, 48 h

Compound	TGI
Nc1ccc(Sc2nnc(N)s2)cc1	> 100 µM
O=c1c(Nc2ccccc2)cn(CCOc2ccccc2)c(=O)n1CCOc1ccccc1	> 100 µM
CCn1cc(C(=O)O)c(=O)c2ccc(C)nc21	> 100 µM
COc1cc2c3c(c1Oc1nnnn1-c1ccccc1)-c1c(ccc4c1OCO4)C[C@H]3N(C)CC2	> 100 µM
NC(C/C=C/P(=O)(O)O)C(=O)O (configuration not stated)	> 100 µM

Tested on: HCT-15 colon
Assay: NCI tumour cell line growth inhibition, 48 h

Compound	TGI
Nc1ccc(Sc2nnc(N)s2)cc1	> 100 µM
O=c1c(Nc2ccccc2)cn(CCOc2ccccc2)c(=O)n1CCOc1ccccc1	> 100 µM
CCn1cc(C(=O)O)c(=O)c2ccc(C)nc21	> 100 µM
COc1cc2c3c(c1Oc1nnnn1-c1ccccc1)-c1c(ccc4c1OCO4)C[C@H]3N(C)CC2	73.1 µM
NC(C/C=C/P(=O)(O)O)C(=O)O (configuration not stated)	> 100 µM

Tested on: SK-MEL-2 melanoma
Assay: NCI tumour cell line growth inhibition, 48 h

Compound	TGI
CCn1cc(C(=O)O)c(=O)c2ccc(C)nc21	> 100 µM
COc1cc2c3c(c1Oc1nnnn1-c1ccccc1)-c1c(ccc4c1OCO4)C[C@H]3N(C)CC2	> 100 µM
NC(C/C=C/P(=O)(O)O)C(=O)O (configuration not stated)	> 100 µM

Reference: PubChem BioAssay (NCI)
